Entries after “also recorded” stand apart in the source; their conditions may differ.
Assays:
[1] = tested on: panel of 55 breast cancer cell lines; test: Cell growth inhibition assay (Cell Titer Glo, 72 h, 9 doses; GI50, TGI, LC50); assay type: cell-based, human; conditions: value is the negative log10 of mol/L
[2] = tested on: luminal, basal, claudin-low and ERBB2AMP breast cancer cell lines; test: Associations of clinically relevant subtypes and response (non-parametric ANOVA or t-test on GI50 ranks); assay type: cell-based, human
Method in brief: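 GI50 values were compared between cell-line subtype groups by non-parametric ANOVA or t-test on ranks. P-values from three test sets were combined and FDR-corrected. Significant three-group effects were followed by post-hoc comparison of each group against all others, and FDR p<0.20 counted as significant.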

Compound `O=c1[nH]c2ccccc2n1C1CCN(Cc2ccc(-c3nc4cc5[nH]cnc5cc4nc3-c3ccccc3)cc2)CC1` [Sigma AKT1-2 inhibitor] has a GI50 ([1]; AU565 cell line, censored GI50 values) of 5.61, a GI50 ([1]; BT20 cell line, censored GI50 values) of 5.00 and a GI50 ([1]; BT474 cell line, censored GI50 values) of 6.08. It also gave a GI50 ([1]; BT483 cell line, censored GI50 values) of 6.08, a GI50 ([1]; CAMA1 cell line, censored GI50 values) of 5.59 and a GI50 ([1]; HCC38 cell line, censored GI50 values) of 4.98. For the same compound, the GI50 ([1]; HCC70 cell line, censored GI50 values) was 5.74, the GI50 ([1]; HCC1143 cell line, censored GI50 values) was 4.87 and the GI50 ([1]; HCC1187 cell line, censored GI50 values) was 5.47. The GI50 ([1]; HCC1419 cell line, censored GI50 values) was 6.03, the GI50 ([1]; HCC1428 cell line, censored GI50 values) was 5.35 and the GI50 ([1]; HCC1500 cell line, censored GI50 values) was 4.89. It also gave a GI50 ([1]; HCC1806 cell line, censored GI50 values) of 5.05, a GI50 ([1]; HCC1937 cell line, censored GI50 values) of 5.00 and a GI50 ([1]; HCC1954 cell line, censored GI50 values) of 5.08. For the same compound, the GI50 ([1]; HCC2185 cell line, censored GI50 values) was 5.75, the GI50 ([1]; HCC3153 cell line, censored GI50 values) was 4.99 and the GI50 ([1]; LY2 cell line, censored GI50 values) was 5.77. The GI50 ([1]; MCF7 cell line, censored GI50 values) was 5.78, the GI50 ([1]; MDAMB134VI cell line, censored GI50 values) was 5.02 and the GI50 ([1]; MDAMB175VII cell line, censored GI50 values) was 5.51. For the same compound, the GI50 ([1]; MDAMB361 cell line, censored GI50 values) was 6.05, the GI50 ([1]; MDAMB415 cell line, censored GI50 values) was 4.95 and the GI50 ([1]; MDAMB436 cell line, censored GI50 values) was 4.47. For the same compound, the GI50 ([1]; MDAMB453 cell line, censored GI50 values) was 5.73, the GI50 ([1]; MDAMB468 cell line, censored GI50 values) was 5.01 and the GI50 ([1]; SKBR3 cell line, censored GI50 values) was 5.68. For the same compound, the GI50 ([1]; SUM52PE cell line, censored GI50 values) was 5.81, the GI50 ([1]; SUM149PT cell line, censored GI50 values) was 5.03 and the GI50 ([1]; SUM159PT cell line, censored GI50 values) was 5.17. For the same compound, the GI50 ([1]; SUM185PE cell line, censored GI50 values) was 5.95, the GI50 ([1]; SUM225CWN cell line, censored GI50 values) was 6.05 and the GI50 ([1]; SUM1315MO2 cell line, censored GI50 values) was 5.33. It also gave a GI50 ([1]; T47D cell line, censored GI50 values) of 5.78, a GI50 ([1]; UACC812 cell line, censored GI50 values) of 5.53 and a GI50 ([1]; ZR75B cell line, censored GI50 values) of 5.93. For the same compound, the GI50 ([1]; ZR751 cell line, censored GI50 values) was 5.94, the GI50 ([1]; cell line AU565) was 5.61 and the GI50 ([1]; cell line BT20) was 5.00. The GI50 ([1]; cell line BT474) was 6.08, the GI50 ([1]; cell line BT483) was 6.08 and the GI50 ([1]; cell line CAMA1) was 5.59. The GI50 ([1]; cell line HCC38) was 4.98, the GI50 ([1]; cell line HCC70) was 5.74 and the GI50 ([1]; cell line HCC1143) was 4.87. For the same compound, the GI50 ([1]; cell line HCC1187) was 5.47, the GI50 ([1]; cell line HCC1419) was 6.03 and the GI50 ([1]; cell line HCC1428) was 5.35. The GI50 ([1]; cell line HCC1500) was 4.89, the GI50 ([1]; cell line HCC1806) was 5.05 and the GI50 ([1]; cell line HCC1937) was 5.00. It also gave a GI50 ([1]; cell line HCC1954) of 5.08, a GI50 ([1]; cell line HCC2185) of 5.75 and a GI50 ([1]; cell line HCC3153) of 4.99. The GI50 ([1]; cell line LY2) was 5.77, the GI50 ([1]; cell line MCF7) was 5.78 and the GI50 ([1]; cell line MDAMB134V) was 5.02. The GI50 ([1]; cell line MDAMB175V) was 5.51, the GI50 ([1]; cell line MDAMB361) was 6.05 and the GI50 ([1]; cell line MDAMB415) was 4.95. For the same compound, the GI50 ([1]; cell line MDAMB436) was 4.47, the GI50 ([1]; cell line MDAMB453) was 5.73 and the GI50 ([1]; cell line MDAMB468) was 5.01. The GI50 ([1]; cell line SKBR3) was 5.68, the GI50 ([1]; cell line SUM52PE) was 5.81 and the GI50 ([1]; cell line SUM149PT) was 5.03. The GI50 ([1]; cell line SUM159PT) was 5.17, the GI50 ([1]; cell line SUM185PE) was 5.95 and the GI50 ([1]; cell line SUM225CWN) was 6.05. For the same compound, the GI50 ([1]; cell line SUM1315MO) was 5.33, the GI50 ([1]; cell line T47D) was 5.78 and the GI50 ([1]; cell line UACC812) was 5.53. The GI50 ([1]; cell line ZR75B) was 5.93, the GI50 ([1]; cell line ZR751) was 5.94 and the “subtype-specific response (sensitivity by transcriptional subtype)” value ([2]; GI50 across subtypes) was “highest in luminal and ERBB2^AMP and lower in basal and claudin-low breast cancer cell lines; also recorded: Luminal and ERBB2AMP cell lines preferentially respond”. For the same compound, the Subtype specificity ([2]; Table 6, most sensitive subtype, FDR p<0.20) was “Luminal/ERBB2AMP”.

Source: patent US10770169B2, “Method of providing a treatment to a subject based on a dynamic pathway map” (THE REGENTS OF THE UNIVERSITY OF CALIFORNIA, priority 2010, dated 2020)
